System: hippocampal tissue slice
Experiment: Excitatory postsynaptic potential of hippocampal tissue slices on a multiple-electrode probe; NMDA-induced long-term depression
Type: cell-based, rat
Conditions: substance 1 nM perfused for 30 minutes before NMDA (30 μM, 3 minutes)
Excerpt: Now, an example of a specific embodiment for the above-mentioned evaluating method 1 will be illustrated. First, the preparation of a cell group and a setting method of experimental conditions are explained below. With regard to the cell group, a tissue slice which was a transversely cut in a hippocampal region along a long-axis which was cut out from a brain tissue of an adult rat using a vibratome (DSK ZERO 1; manufactured by Dosaka EM K.K.) was used. Thickness of the hippocampal tissue slice was made 300 μm.
For the measurement of an electrophysiological response of this hippocampal tissue slice, a multiple-electrode measuring apparatus MED 64 System (Alpha Med) was used. With regard to an electrode arranged in the hippocampal tissue slice, a multiple-electrode probe MED-P530A (Alpha Med) attached to this multiple-electrode measuring apparatus was used. On a substrate of this multiple-electrode probe, plural electrodes are previously arranged regularly with a predetermined interval (300 μm).
One sheet of the hippocampal tissue slice cut out by a vibratome was allowed to stand in a chamber placed on a substrate of one multiple-electrode probe and, at the same time, an artificial cerebrospinal fluid sufficiently saturated with a mixed gas of oxygen and carbon dioxide (95% oxygen gas and 5% carbon dioxide gas) was filled in the chamber whereby the hippocampal tissue slice was soaked in the artificial cerebrospinal fluid followed by being allowed to stand at room temperature for 1 hour or longer. With regard to the artificial cerebrospinal fluid, an aqueous solution containing 124 mM of NaCl, 1.25 mM of NaH2PO4.2H2O, 5 mM of KCl, 2 mM of MgSO4.7H2O, 2 mM of CaCl2, 22 mM of NaHCO3 and 10 mM of […] was used.
In this artificial cerebrospinal fluid, the hippocampal tissue slice was placed on the multiple-electrode probe so that the cells included in each of three regions comprising one dentate gyrus and two cornu ammonis regions near the surface of the hippocampal tissue slice were brought into contact with plural electrodes on the multiple-electrode probe. Thus, a stimulating electrode which applies electrical stimulation to presynaptic fiber projecting to the nerve cell group and a recording electrode which records excitatory postsynaptic potential induced by the electrical stimulation in the nerve cell group as accumulated potential are arranged for each of pyramidal cells of cornu ammonis CA1 field, pyramidal cells of cornu ammonis CA3 field and granular cells of dentate gyrus.
Electrical stimulation to a hippocampal tissue slice by a stimulating electrode was carried out by repeated application of electrical stimulation at intervals of 15 seconds in the order of a stimulating electrode arranged in a cornu ammonis CA1 field, a stimulating electrode arranged in a cornu ammonis CA3 field, a stimulating electrode arranges in a dentate gyrus and, again, a stimulating electrode arranged in a cornu ammonis CA1 field. The excitatory postsynaptic potential induced by the electrical stimulation was recorded for about 30 minutes and, after confirming that the accumulated potential was stabilized, strength of electrical stimulation applied from the stimulating electrode was set in each of the following steps. […] When the strength of the measured accumulated potential was saturated (or became constant), the strength of the saturated accumulated potential was defined as maximum (100%) and strength of electrical stimulation to be applied to the hippocampal tissue slice from the stimulating electrode was set so as to make the value 50% of the above maximum value.
In this Example, DES was used as an object substance, estradiol, which is one example of estrogen, was used as an agonist to hormone receptor and NMDA was used as a stimulant. […]

| SMILES | excitatory postsynaptic potential 50 minutes after administration of NMDA, relative to that before administration of NMDA (cornu ammonis CA1 field) | excitatory postsynaptic potential 50 minutes after administration of NMDA, relative to that before administration of NMDA (cornu ammonis CA3 field) | excitatory postsynaptic potential 50 minutes after administration of NMDA, relative to that before administration of NMDA (dentate gyrus) |
| --- | --- | --- | --- |
| CC/C(=C(/CC)c1ccc(O)cc1)c1ccc(O)cc1 [DES, diethylstilbestrol] | about 40% | about 75% | about 68% |
| C[C@]12CC[C@@H]3c4ccc(O)cc4CC[C@H]3[C@@H]1CC[C@@H]2O [estradiol] | about 40% | about 55% | about 80% |

— US20060088815A1, “Method for evaluation of endocrine disruptive action” (THE UNIVERSITY OF TOKYO, priority 2004, published 2006)
